According to PubChem BioAssay AID1259407 (Chemical Carcinogenesis Research Information System (CCRIS), 2018):
Active and inactive are the calls of the source. How the calls were made is not given here.

Tested on: CCRIS mutagenicity, Ames/micronucleus/aberration tests
Assay: CCRIS mutagenicity studies
[1] = Test System: AMES SALMONELLA TYPHIMURIUM, Strain/Indicator: TA98, Metabolic Activation: NONE, Method: PREINCUBATION
[2] = Test System: AMES SALMONELLA TYPHIMURIUM, Strain/Indicator: TA100, Metabolic Activation: NONE, Method: PREINCUBATION
[3] = Test System: AMES SALMONELLA TYPHIMURIUM, Strain/Indicator: TA98, Metabolic Activation: NONE, Method: STANDARD PLATE
[4] = Test System: AMES SALMONELLA TYPHIMURIUM, Strain/Indicator: TA98, Metabolic Activation: RAT, LIVER, S-9, AROCLOR 1254, Method: STANDARD PLATE
[5] = Test System: AMES SALMONELLA TYPHIMURIUM, Strain/Indicator: TA100, Metabolic Activation: NONE, Method: STANDARD PLATE
[6] = Test System: AMES SALMONELLA TYPHIMURIUM, Strain/Indicator: TA100, Metabolic Activation: RAT, LIVER, S-9, AROCLOR 1254, Method: STANDARD PLATE
[7] = Test System: AMES SALMONELLA TYPHIMURIUM, Strain/Indicator: TA1538, Metabolic Activation: RAT, LIVER, S-9, AROCLOR 1254, Method: STANDARD PLATE

`O=[N+]([O-])c1ccc2c(c1)Cc1cccc([N+](=O)[O-])c1-2` was tested, and the mutagenic call (Test System: AMES SALMONELLA TYPHIMURIUM, Strain/Indicator: TA98, Metabolic Activation: HAMSTER, LIVER, S-9, AROCLOR 1254 (30%), Method: PREINCUBATION) was “active; positive”, the mutagenic call [1] was “active; positive” and the mutagenic call (Test System: AMES SALMONELLA TYPHIMURIUM, Strain/Indicator: TA98, Metabolic Activation: RAT, LIVER, S-9, AROCLOR 1254 (30%), Method: PREINCUBATION) was “active; positive”. The mutagenic call (Test System: AMES SALMONELLA TYPHIMURIUM, Strain/Indicator: TA100, Metabolic Activation: HAMSTER, LIVER, S-9, AROCLOR 1254 (30%), Method: PREINCUBATION) was “active; positive”, the mutagenic call [2] was “active; positive” and the mutagenic call (Test System: AMES SALMONELLA TYPHIMURIUM, Strain/Indicator: TA100, Metabolic Activation: RAT, LIVER, S-9, AROCLOR 1254 (30%), Method: PREINCUBATION) was “active; positive”.
`O=C(O)C(Br)Br` was tested, and the mutagenic call (End Point: Ames Salmonella typhimurium, Test System: TA98, Metabolic Activation: Hamster, liver, S-9, Aroclor 1254, Method: Preincubation) was “inactive; negative”, the mutagenic call (End Point: Ames Salmonella typhimurium, Test System: TA100, Metabolic Activation: Hamster, liver, S-9, Aroclor 1254, Method: Preincubation) was “active; positive” and the mutagenic call (End Point: In vivo micronucleus, Test System: Peripheral blood erythrocytes, Species: Mouse, Strain/Sex: B6C3F1/Female, Route: Oral (drinking water)) was “inactive; negative (for increased frequencies of micronucleated normochromatic erythrocyte”. For the same compound, the mutagenic call (End Point: In vivo micronucleus, Test System: Peripheral blood erythrocytes, Species: Mouse, Strain/Sex: B6C3F1/Male, Route: Oral (drinking water)) was “inactive; positive (for increased frequencies of micronucleated normochromatic erythrocyte”, the mutagenic call (Test System: AMES SALMONELLA TYPHIMURIUM, Strain/Indicator: RSJ100, Metabolic Activation: NONE, Method: PREINCUBATION) was “inactive; negative” and the mutagenic call (Test System: AMES SALMONELLA TYPHIMURIUM, Strain/Indicator: RSJ100, Metabolic Activation: RAT LIVER S-9, Method: PREINCUBATION) was “inactive; negative”. The mutagenic call (Test System: AMES SALMONELLA TYPHIMURIUM, Strain/Indicator: TA98, Metabolic Activation: RAT LIVER S-9, Method: PREINCUBATION) was “active; positive”, the mutagenic call (Test System: AMES SALMONELLA TYPHIMURIUM, Strain/Indicator: TA98, Metabolic Activation: RAT, LIVER, S-9, PHENOBARBITAL AND 5,6-BENZOFLAVONE, Method: PREINCUBATION) was “inactive; negative” and the mutagenic call (Test System: AMES SALMONELLA TYPHIMURIUM, Strain/Indicator: TA100, Metabolic Activation: NONE, Method: FLUCTUATION TEST) was “active; positive”. For the same compound, the mutagenic call [2] was “active; positive”, the mutagenic call (Test System: AMES SALMONELLA TYPHIMURIUM, Strain/Indicator: TA100, Metabolic Activation: RAT LIVER S-9, Method: PREINCUBATION) was “active; positive” and the mutagenic call (Test System: AMES SALMONELLA TYPHIMURIUM, Strain/Indicator: TA100, Metabolic Activation: RAT, LIVER, S-9, AROCLOR 1254, Method: FLUCTUATION TEST) was “active; positive”. The mutagenic call (Test System: AMES SALMONELLA TYPHIMURIUM, Strain/Indicator: TA100, Metabolic Activation: RAT, LIVER, S-9, PHENOBARBITAL AND 5,6-BENZOFLAVONE, Method: PREINCUBATION) was “active; positive”, the mutagenic call (Test System: Ames Salmonella typhimurium, Strain/Indicator: TA98, Metabolic Activation: None, Method: Preincubation) was “inactive; negative” and the mutagenic call (Test System: Ames Salmonella typhimurium, Strain/Indicator: TA98, Metabolic Activation: Rat, liver, S-9, Aroclor 1254, Method: Preincubation) was “inactive; negative”. For the same compound, the mutagenic call (Test System: Ames Salmonella typhimurium, Strain/Indicator: TA100, Metabolic Activation: None, Method: Preincubation) was “active; positive” and the mutagenic call (Test System: Ames Salmonella typhimurium, Strain/Indicator: TA100, Metabolic Activation: Rat, liver, S-9, Aroclor 1254, Method: Preincubation) was “active; positive”.
For `CCCCN`, the mutagenic call (Test System: AMES SALMONELLA TYPHIMURIUM, Strain/Indicator: TA98, Metabolic Activation: HAMSTER, LIVER, S-9, AROCLOR 1254 (10%), Method: PREINCUBATION) was “inactive; negative”, the mutagenic call [1] was “inactive; negative” and the mutagenic call (Test System: AMES SALMONELLA TYPHIMURIUM, Strain/Indicator: TA98, Metabolic Activation: RAT, LIVER, S-9, AROCLOR 1254 (10%), Method: PREINCUBATION) was “inactive; negative”. For the same compound, the mutagenic call (Test System: AMES SALMONELLA TYPHIMURIUM, Strain/Indicator: TA100, Metabolic Activation: HAMSTER, LIVER, S-9, AROCLOR 1254 (10%), Method: PREINCUBATION) was “inactive; negative”, the mutagenic call [2] was “inactive; negative” and the mutagenic call (Test System: AMES SALMONELLA TYPHIMURIUM, Strain/Indicator: TA100, Metabolic Activation: RAT, LIVER, S-9, AROCLOR 1254 (10%), Method: PREINCUBATION) was “inactive; negative”. The mutagenic call (Test System: AMES SALMONELLA TYPHIMURIUM, Strain/Indicator: TA1535, Metabolic Activation: HAMSTER, LIVER, S-9, AROCLOR 1254 (10%), Method: PREINCUBATION) was “inactive; negative”, the mutagenic call (Test System: AMES SALMONELLA TYPHIMURIUM, Strain/Indicator: TA1535, Metabolic Activation: NONE, Method: PREINCUBATION) was “inactive; negative” and the mutagenic call (Test System: AMES SALMONELLA TYPHIMURIUM, Strain/Indicator: TA1535, Metabolic Activation: RAT, LIVER, S-9, AROCLOR 1254 (10%), Method: PREINCUBATION) was “inactive; negative”. For the same compound, the mutagenic call (Test System: AMES SALMONELLA TYPHIMURIUM, Strain/Indicator: TA1537, Metabolic Activation: HAMSTER, LIVER, S-9, AROCLOR 1254 (10%), Method: PREINCUBATION) was “inactive; negative”, the mutagenic call (Test System: AMES SALMONELLA TYPHIMURIUM, Strain/Indicator: TA1537, Metabolic Activation: NONE, Method: PREINCUBATION) was “inactive; negative” and the mutagenic call (Test System: AMES SALMONELLA TYPHIMURIUM, Strain/Indicator: TA1537, Metabolic Activation: RAT, LIVER, S-9, AROCLOR 1254 (10%), Method: PREINCUBATION) was “inactive; negative”.
`CCOc1cc(N=Nc2ccc(N(CCO)CCO)cc2)ccc1N=Nc1c(S(=O)(=O)O)cc2ccc(N)cc2c1O` was tested, and the mutagenic call [3] was “inactive; negative”, the mutagenic call [4] was “active; positive” and the mutagenic call [5] was “inactive; negative”. The mutagenic call [6] was “inactive; negative” and the mutagenic call [7] was “active; positive”.
With `FC(F)C(F)(F)F` the mutagenic call [3] was “inactive; negative”, the mutagenic call [4] was “inactive; negative” and the mutagenic call [5] was “inactive; negative”. For the same compound, the mutagenic call [6] was “inactive; negative”, the mutagenic call (Test System: AMES SALMONELLA TYPHIMURIUM, Strain/Indicator: TA1535, Metabolic Activation: NONE, Method: STANDARD PLATE) was “inactive; negative” and the mutagenic call (Test System: AMES SALMONELLA TYPHIMURIUM, Strain/Indicator: TA1535, Metabolic Activation: RAT, LIVER, S-9, AROCLOR 1254, Method: STANDARD PLATE) was “inactive; negative”. For the same compound, the mutagenic call (Test System: AMES SALMONELLA TYPHIMURIUM, Strain/Indicator: TA1537, Metabolic Activation: NONE, Method: STANDARD PLATE) was “inactive; negative”, the mutagenic call (Test System: AMES SALMONELLA TYPHIMURIUM, Strain/Indicator: TA1537, Metabolic Activation: RAT, LIVER, S-9, AROCLOR 1254, Method: STANDARD PLATE) was “inactive; negative” and the mutagenic call (Test System: AMES SALMONELLA TYPHIMURIUM, Strain/Indicator: TA1538, Metabolic Activation: NONE, Method: STANDARD PLATE) was “inactive; negative”. The mutagenic call [7] was “inactive; negative”, the mutagenic call (Test System: E. COLI, Strain/Indicator: WP2 UVRA, Metabolic Activation: NONE, Method: STANDARD PLATE) was “inactive; negative” and the mutagenic call (Test System: E. COLI, Strain/Indicator: WP2 UVRA, Metabolic Activation: RAT, LIVER, S-9, AROCLOR 1254, Method: STANDARD PLATE) was “inactive; negative”.
In the case of `COCc1ccc([N+]#N)cc1`, the mutagenic call (Test System: AMES SALMONELLA TYPHIMURIUM, Strain/Indicator: TA102, Metabolic Activation: NONE, Method: STANDARD PLATE) is reported as “active; positive” and the mutagenic call (Test System: CHINESE HAMSTER V-79, Strain/Indicator: V-79/6-THIOGUANINE, Metabolic Activation: NONE) is reported as “active; positive”.
`c1ccc2c(c1)-c1cc3ccccc3c3cc4ccccc4c-2c13` was tested, and the mutagenic call (Test System: AMES SALMONELLA TYPHIMURIUM, Strain/Indicator: TA100, Metabolic Activation: MOUSE, LIVER, S-9, 3-METHYLCHOLANTHRENE, Method: STANDARD PLATE) was “active; positive”, the mutagenic call (Test System: AMES SALMONELLA TYPHIMURIUM, Strain/Indicator: TA100, Metabolic Activation: RAT, LIVER, S-9, 3-METHYLCHOLANTHRENE, Method: STANDARD PLATE) was “active; positive” and the mutagenic call (Test System: HUMAN H1A1V2 CELLS, Strain/Indicator: TK LOCUS, Metabolic Activation: NONE, Method: SUSPENSION/PLATE) was “active; positive”.
